{
  "source": "ChEMBL document CHEMBL1158049",
  "about": "“Bisindole alkaloids from myxomycetes Arcyria denudata and Arcyria obvelata” (J Nat Prod, 2006)",
  "data": [
    {"system": "Jurkat", "assay": "Cytotoxicity against human Jurkat cells after 42 hrs by alamar blue assay", "format": "functional, cell-based", "units": {"IC50": "µg/mL"}, "values": [
      {"smiles": "O=C1NC(=O)C(c2c[nH]c3cc(OS(=O)(=O)O)ccc23)=C1c1c[nH]c2ccccc12", "IC50": "> 25"},
      {"smiles": "O=C1NC(=O)C(c2c[nH]c3cc(O)ccc23)=C1c1c[nH]c2ccccc12", "note": "[ARCYRIARUBIN B]", "IC50": 10},
      {"smiles": "O=C1NC(=O)C2=C1c1c([nH]c3cc(O)ccc13)Oc1cccc3[nH]cc2c13", "note": "[ARCYROXOCIN B]", "IC50": 7},
      {"smiles": "O=C1NC(=O)[C@H]2c3c[nH]c4cccc(c34)-c3[nH]c4ccccc4c3[C@@H]12", "note": "[DIHYDROARCYRIACYANIN A]", "IC50": 7}
    ]}
  ]
}
